Legend:
Type in all cases: in vivo
Bedbug eggs [1] = assay: Treating bedbug eggs on a substrate with test composition at pH 9 to 10 (Example 1); conditions: 1% solution, pH of 9 to 10, 100° F., 5 minutes exposure
Experimental: Bedbug eggs on a substrate were exposed to a 100° F. test composition for 5 minutes and then examined. […] Water by itself killed about 20% of the bedbug eggs. And, complete kill was accomplished by a commercial bedbug killer sold under the tradename Transport.

Bedbug eggs [2] = assay: Treating bedbug eggs with anionic compounds near neutral pH (Example 2), kill of eggs; conditions: pH 7-8, 100° F., 5 min
Experimental: (§1) Aqueous test compositions of each of several anionic compounds prepared and adjusted to near neutral pH of about 7-8. Bedbug eggs were then contacted with a 100° F. test composition for 5 min.

Bedbug Eggs and Nymphs = assay: Treating bedbug eggs with anionic compounds near neutral pH (Example 2), kill of eggs and nymphs; conditions: pH 7-8, 100° F., 5 min
Experimental: as §1

Row | Compound | kill of bedbug eggs (Bedbug eggs [1]) | % Kill of Bedbug Eggs (Bedbug eggs [2]; 0.1% aqueous test composition) [%] | % Kill of Bedbug Eggs (Bedbug eggs [2]; 1% aqueous test composition) [%] | % Kill of Bedbug Eggs and Nymphs (Bedbug Eggs and Nymphs; 0.1% aqueous test composition) [%] | % Kill of Bedbug Eggs and Nymphs (Bedbug Eggs and Nymphs; 1% aqueous test composition) [%]
1 | CCCCCCCCCCCCOS(=O)(=O)[O-].[Na+] [sodium lauryl sulfate] | did not kill | 70 | 75 | 95 | 100
2 | CCCCCCCCS(=O)(=O)[O-].[Na+] [sodium octyl sulfonate] |  |  | 90 |  | 95
3 | sodium dodecylbenzene sulfonate |  |  | 30 |  | 30
4 | sodium lauryl ether sulfate |  |  | 35 |  | 35

Reference: patent US10143199B2, “Method of killing bedbug eggs” (Ecolab USA Inc., priority 2012, dated 2018)
